Laboratory results taken from the NIST ThermoML archive (doi:10.1021/acs.jced.9b00399).

Key:
[1] = Gas, isochoric method
[2] = xn = mol fraction of the nth substance listed; conditions: Gas, isochoric method, x1 = 0.6992

[HH] [hydrogen]
[1]
Conditions	mass density [kg/m3]
722.4 K, 20262 kPa	6.45
733.6 K, 20559 kPa	6.449
743.1 K, 20811 kPa	6.447
753.6 K, 21086 kPa	6.447
763.9 K, 21370 kPa	6.445
773.4 K, 21625 kPa	6.445
784.3 K, 21917 kPa	6.444
792.8 K, 22153 kPa	6.443
803.8 K, 22451 kPa	6.442
812.9 K, 22702 kPa	6.442
822.2 K, 22963 kPa	6.441
834.3 K, 23222 kPa	6.422
844.3 K, 23469 kPa	6.412
854.7 K, 23640 kPa	6.381
863.3 K, 23818 kPa	6.366
874.1 K, 24069 kPa	6.354
883.3 K, 24272 kPa	6.344
892.3 K, 24413 kPa	6.337
904.5 K, 24668 kPa	6.324
914.1 K, 24899 kPa	6.319
924 K, 25112 kPa	6.313

[HH] [hydrogen] + O=C=O
[2]
Conditions	mass density [kg/m3]
673.4 K, 20652 kPa	50.77
683.6 K, 20986 kPa	50.78
693.5 K, 21304 kPa	50.79
703.3 K, 21638 kPa	50.85
713.9 K, 21981 kPa	50.87
723.3 K, 22282 kPa	50.87
733.9 K, 22610 kPa	50.86
743.9 K, 22909 kPa	50.82
753.6 K, 23216 kPa	50.82

N#N [nitrogen]
[1]
Conditions	mass density [kg/m3]
727.3 K, 20352 kPa	86.58
805.8 K, 22603 kPa	86.28
874.6 K, 24580 kPa	86.14
927.1 K, 26090 kPa	86.03

O [water]
[1]
Conditions	mass density [kg/m3]
724.1 K, 15981 kPa	58.3
773.1 K, 17804 kPa	58.58
826.1 K, 19727 kPa	58.95
877.1 K, 21161 kPa	58.02
927.1 K, 22542 kPa	57.4
